Values quoted from earlier work as cited in PMC10761396, “Evaluation of new alternative methods for the identification of estrogenic, androgenic and steroidogenic effects: a comparative in vitro/in silico study” (Archives of Toxicology, 2023).

Test system: ER
Set-up: method as in Browne, et al (2015)
Conditions: ref Browne, et al (2015), cited from earlier work; for ToxCast Pathway Model (AUC): as agonist where given, value above 0.1 = significant interaction

Compound | ToxCast Pathway Model (AUC) | ToxCast Pathway Model interaction
CC(C)(C)CC(C)(C)c1ccc(O)cc1 [4-TO, 4-tert-octylphenol] | 0.393 | significant interaction
O=c1c(-c2ccc(O)cc2)coc2cc(O)ccc12 [Daidzein, daidzein] | 0.44 | significant interaction
